Laboratory results published in patent US20230391766A1, “1-(2-(4-CYCLOPROPYL-1H-1,2,3-TRIAZOL-1-YL)ACETYL)-4-HYDROXY-N-(BENZYL)PYRROLIDIN E-2-CARBOXAMIDE DERIVATIVES AS VHL INHIBITORS FOR THE TREATMENT OF ANEMIA AND CANCER” (Genentech, Inc., priority 2020, published 2023).

Tests used:
VHL [1] = target: T1, VHL (Homo sapiens, UniProt P40337); assay: VHL HEK-293 BRET Assay (VHL NanoBRET Target Engagement Assay); type: cell-based; conditions: for IC50: HEK 293 RT VHL-NanoLuc stable cells, 1 uM tracer, 2 hours, geometric mean where more than one measurement, read-out: VHL binding in cells (HEK293 nanoBRET); for Ratio cell permeability shift: ratio not defined
T1 construct: expressed in transfected cells
Experimental: (§1) The VHL NanoBRET™ Target Engagement Assay analyzes the apparent affinity of test compounds for VHL in cells by competitive displacement of a VHL NanoBRET™ tracer reversibly bound to a NanoLuc® VHL fusion protein stably expressed in the cells.
(§2) 50 nL of control compound (10 mM; parental unlabeled VHL antagonist; see structure below) and 50 nL of DMSO (negative control) were dispensed into the appropriate control wells. DMSO was backfilled to a final volume of 50 nL as required. […] Max Signal control wells consisted of DMSO only treated wells. Minimum Signal control wells contained of 10 uM parental unlabeled VHL antagonist (control compound—see structure below). […] Background Signal control wells were prepared without tracer for background correction steps.
(§3) The raw BRET ratio values were calculated by dividing the acceptor emission value (610 nm) by the donor emission value (460 nm) for each sample. To correct for background, the BRET ratio in the absence of tracer (average of no-tracer control samples) was subtracted from the BRET ratio of each sample. Raw BRET units were converted to milliBRET units (mBU) by multiplying each raw BRET value by 1,000. The normalized NanoBRET™ signal was calculated relative to the Max Signal control wells (DMSO treated control wells) and the Minimum Signal control wells. Percentage inhibition was calculated relative to the Minimum Signal control and Maximum Signal control wells. IC50 values were derived by four parameter curve fitting using the Robust method.

VHL [2] = target: T1, VHL; assay: VHL nanoBRET (+ Digitonin); type: cell-based
Experimental: as §1, §2, §3

T1 sequence (P40337 whole entry): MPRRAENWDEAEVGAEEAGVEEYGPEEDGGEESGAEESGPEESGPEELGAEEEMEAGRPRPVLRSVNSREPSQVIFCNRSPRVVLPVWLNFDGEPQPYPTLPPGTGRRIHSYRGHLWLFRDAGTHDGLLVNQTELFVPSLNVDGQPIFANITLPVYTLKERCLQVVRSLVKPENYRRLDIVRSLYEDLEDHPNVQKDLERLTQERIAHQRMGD

Row | SMILES | IC50 (VHL [1]) [nM] | Ratio cell permeability shift (VHL [1]) | EC50 (VHL [2]) [nM]
1 | Cc1ncsc1-c1ccc([C@H](C)NC(=O)[C@@H]2C[C@@H](O)CN2C(=O)[C@H](C2CCCCC2)n2cc(C3CC3)nn2)cc1 [Example S19, (2S,4R)-1-((S)-2-cyclohexyl-2-(4-cyclopropyl-1H-1,2,3-triazol-1-yl)acetyl)-4-hydroxy-N—((S)-1-(4-(4-methylthiazol-5-yl)phenyl)ethyl)pyrrolidine-2-carboxamide] | < 5 | ~1 | < 5
2 | Cc1ncsc1-c1ccc(C(C)NC(=O)[C@@H]2C[C@@H](O)CN2C(=O)[C@@H](n2cc(C3CC3)nn2)C(C)(C)C)c(Cl)c1 (stereo partly drawn) [Example S22, (2S,4R)—N-(1-(2-chloro-4-(4-methylthiazol-5-yl)phenyl)ethyl)-1-((S)-2-(4-cyclopropyl-1H-1,2,3-triazol-1-yl)-3,3-dimethylbutanoyl)-4-hydroxypyrrolidine-2-carboxamide] | 10 | 0.72 | 10
3 | Cc1ncsc1-c1ccc(C(C)NC(=O)[C@@H]2C[C@@H](O)CN2C(=O)[C@@H](n2cc(C3CC3)nn2)C23CC4CC(CC(C4)C2)C3)c(Cl)c1 (stereo partly drawn) [Example S23, (2S,4R)-1-((2S)-2-(adamantan-1-yl)-2-(4-cyclopropyl-1H-1,2,3-triazol-1-yl)acetyl)-N-(1-(2-chloro-4-(4-methylthiazol-5-yl)phenyl)ethyl)-4-hydroxypyrrolidine-2-carboxamide] | 20 | 0.42 | 40
4 | Cc1ncsc1-c1ccc(CNC(=O)[C@@H]2C[C@@H](O)CN2C(=O)[C@@H](n2cc(C3(C(F)(F)F)CC3)nn2)C(C)(C)C)cc1 [Example S28, (2S,4R)-1-((S)-3,3-dimethyl-2-(4-(1-(trifluoromethyl)cyclopropyl)-1H-1,2,3-triazol-1-yl)butanoyl)-4-hydroxy-N-(4-(4-methylthiazol-5-yl)benzyl)pyrrolidine-2-carboxamide] | 40 | 0.98 | 40
5 | CC(C)[C@@H](C(=O)N1C[C@H](O)C[C@H]1C(=O)N[C@H](Cc1ccc(-c2ccccc2)cc1)C(N)=O)n1cc(-c2cccs2)nn1 [Example S38, (2S,4R)—N—((R)-3-([1,1′-biphenyl]-4-yl)-1-amino-1-oxopropan-2-yl)-4-hydroxy-1-((S)-3-methyl-2-(4-(thiophen-2-yl)-1H-1,2,3-triazol-1-yl)butanoyl)pyrrolidine-2-carboxamide] | 190 | 1.12 | 170
6 | CC(C)[C@@H](C(=O)N1C[C@H](O)C[C@H]1C(=O)N[C@H](Cc1ccc(-c2ccccc2)cc1)C(N)=O)n1cc(-c2ccco2)nn1 [Example S39, (2S,4R)—N—((R)-3-([1,1′-biphenyl]-4-yl)-1-amino-1-oxopropan-2-yl)-1-((S)-2-(4-(furan-2-yl)-1H-1,2,3-triazol-1-yl)-3-methylbutanoyl)-4-hydroxypyrrolidine-2-carboxamide] | 110 | 0.93 | 110
7 | C[C@H](NC(=O)[C@@H]1C[C@@H](O)CN1C(=O)[C@@H](n1cc(C2CC2)nn1)C(C)(C)C)c1ccc(-c2ccccc2F)cc1 [Example S41, (2S,4R)-1-((S)-2-(4-cyclopropyl-1H-1,2,3-triazol-1-yl)-3,3-dimethylbutanoyl)-N—((S)-1-(2′-fluoro-[1,1′-biphenyl]-4-yl)ethyl)-4-hydroxypyrrolidine-2-carboxamide] | 10 | 0.72 | 10
8 | C[C@@H](NC(=O)[C@@H]1C[C@@H](O)CN1C(=O)[C@@H](n1cc(C2CC2)nn1)C(C)(C)C)c1ccc(-c2ccccc2F)cc1 [Example S42, (2S,4R)-1-((S)-2-(4-cyclopropyl-1H-1,2,3-triazol-1-yl)-3,3-dimethylbutanoyl)-N—((R)-1-(2′-fluoro-[1,1′-biphenyl]-4-yl)ethyl)-4-hydroxypyrrolidine-2-carboxamide] | 1100 | 0.71 | 1540

More lines, now with the values ahead:

Row | IC50 (VHL [1]) [nM] | Ratio cell permeability shift (VHL [1]) | EC50 (VHL [2]) [nM] | SMILES
9 | – | 0.54 | 10 | Cc1ncsc1-c1ccc([C@H](C)NC(=O)[C@@H]2C[C@@H](O)CN2C(=O)[C@@H](n2cc(C3CC3)nn2)C23CC4CC(CC(C4)C2)C3)cc1 [Example S20, (2S,4R)-1-((2S)-2-(adamantan-1-yl)-2-(4-cyclopropyl-1H-1,2,3-triazol-1-yl)acetyl)-4-hydroxy-N—((S)-1-(4-(4-methylthiazol-5-yl)phenyl)ethyl)pyrrolidine-2-carboxamide]
10 | – | 0.67 | 10 | CCC(C)(C)[C@@H](C(=O)N1C[C@H](O)C[C@H]1C(=O)N[C@@H](C)c1ccc(-c2scnc2C)cc1)n1cc(C2CC2)nn1 [Example S21, (2S,4R)-1-((S)-2-(4-cyclopropyl-1H-1,2,3-triazol-1-yl)-3,3-dimethylpentanoyl)-4-hydroxy-N—((S)-1-(4-(4-methylthiazol-5-yl)phenyl)ethyl)pyrrolidine-2-carboxamide]
11 | 20 | 1.02 | 20 | Cc1ncsc1-c1ccc(CNC(=O)[C@@H]2C[C@@H](O)CN2C(=O)[C@@H](n2cc(C3CC3)nn2)C(C)(C)c2ccccc2)cc1 [Example S26, (2S,4R)-1-((S)-2-(4-cyclopropyl-1H-1,2,3-triazol-1-yl)-3-methyl-3-phenylbutanoyl)-4-hydroxy-N-(4-(4-methylthiazol-5-yl)benzyl)pyrrolidine-2-carboxamide]
12 | 10 | 1.04 | 10 | Cc1ncsc1-c1ccc(CNC(=O)[C@@H]2C[C@@H](O)CN2C(=O)[C@@H](n2cc(C3(C)CC3)nn2)C(C)(C)C)cc1 [Example S29, (2S,4R)-1-((S)-3,3-dimethyl-2-(4-(1-methylcyclopropyl)-1H-1,2,3-triazol-1-yl)butanoyl)-4-hydroxy-N-(4-(4-methylthiazol-5-yl)benzyl)pyrrolidine-2-carboxamide]
13 | 5400 | 1.48 | 3640 | Cc1cnnn1[C@H](C(=O)N1C[C@H](O)C[C@H]1C(=O)N[C@H](Cc1ccc(-c2ccccc2)cc1)C(N)=O)C(C)C [Example S32, (2S,4R)—N—((R)-3-([1,1′-biphenyl]-4-yl)-1-amino-1-oxopropan-2-yl)-4-hydroxy-1-((S)-3-methyl-2-(5-methyl-1H-1,2,3-triazol-1-yl)butanoyl)pyrrolidine-2-carboxamide]
14 | 1660 | 1.43 | 1160 | Cc1nnn([C@H](C(=O)N2C[C@H](O)C[C@H]2C(=O)N[C@H](Cc2ccc(-c3ccccc3)cc2)C(N)=O)C(C)C)c1C [Example S37, (2S,4R)—N—((R)-3-([1,1′-biphenyl]-4-yl)-1-amino-1-oxopropan-2-yl)-1-((S)-2-(4,5-dimethyl-1H-1,2,3-triazol-1-yl)-3-methylbutanoyl)-4-hydroxypyrrolidine-2-carboxamide]
15 | 80 | 0.74 | 110 | Cc1ncsc1-c1ccc([C@@H](NC(=O)[C@@H]2C[C@@H](O)CN2C(=O)[C@@H](n2cc(C3CC3)nn2)C(C)(C)C)C(F)(F)F)cc1 [Example S40, (2S,4R)-1-((S)-2-(4-cyclopropyl-1H-1,2,3-triazol-1-yl)-3,3-dimethylbutanoyl)-4-hydroxy-N—((R)-2,2,2-trifluoro-1-(4-(4-methylthiazol-5-yl)phenyl)ethyl)pyrrolidine-2-carboxamide]
